# Entries after “also recorded” stand apart in the source; their conditions may differ.
# Legend:
# Type in all cases: cell-based, Mouse
# 3T3-L1 adipocytes [1] = test: Lipolysis (glycerol in culture medium) of 3T3-L1 adipocytes with or without TNF-α; settings: for increase in glycerol accumulation versus untreated controls: last 24 hours of 5-day treatment; for reduction of the increase in glycerol release associated with TNF-α: then 24 hours TNF-α plus BRL 1 μM; for blocked share of the increase in glycerol release due to TNF-α: BRL 10 μM or PGJ2 15 μM, last 24 hours
# Protocol: 3T3-L1 adipocytes used in this example were obtained from 3T3-L1 fibroblasts as follows. 3T3-L1 fibroblasts (ATCC Deposit NO. CL-173, described in U.S. Pat. No. 4,003,789) were cultured in Dulbecco's Modified Eagle's Medium (DMEM) containing 10% bovine calf serum, and induced to differentiate into adipocytes using standard protocols, as described, e.g., in Kohanski et al. (1996) J. Biol. Chem. 261:12272. Adipocytes were used 10-15 days after the differentiation protocol was initiated.
# (§1) Differentiated 3T3-L1 adipocytes cultured in 12 well plates were incubated overnight in DMEM+0.5% BSA in the absence of serum. The following morning, the cells were incubated in the presence or absence of 2 mM or 20 mM sodium salicylate (NaSal) and treated with recombinant murine TNF-α (m TNF-α; Genzyme; Cambridge, Mass.) with or without 17 μM 15-deoxy-^12,14-PGJ2 (“PGJ2”; Cayman Chemical; Ann Arbor, Mich.) or 10 μM BRL 49653 (“BRL”; Smith Kine Beecham (Hamish Ross) (King of Prussia, Pa.)) for 24 hours. The glycerol content in the culture medium was determined using a colorimetric assay (GPO-Trinder, Sigma, St Louis, […].). Protein content was determined using the BCA (bicinchonic acid) protein assay (Pierce, Rockford, Ill.). The results are indicated as nmol glycerol per mg protein.
# Accordingly, 3T3-L1 adipocytes were treated with BRL at 10 μM, 1 μM or 1 nM and TNF-α as described above, and the amount of glycerol was determined after 24 hours.
# 3T3-L1 adipocytes were treated with TNF-α (2 or 10 ng/ml), TNF-α plus BRL at 10 μM, TNF-α plus PGJ2 at 15 μM, or BRL or PGJ2 alone for 5 days. The media was replaced everyday and collected on day 5 to measure accumulation of glycerol.
# […] The glycerol content in the culture medium was determined as described above.
# 3T3-L1 adipocytes prepared as described in Example 1 were preincubated with various amounts (0-50 μM) of the p38 kinase inhibitor SB203580 and then treated with 10 ng/ml TNF-α for 24 hours and the amount of glycerol in the culture medium determined as described above. […]
# ERK1/2 [2] = test: ERK 1/2 kinase assay (MBP substrate) on extracts of treated 3T3-L1 adipocytes
# Protocol: In this example, 3T3-L1 cells were treated as described in Example 2, and cell extracts were used in an ERK 1/2 kinase assay, using MBP (myelin basic protein) as a substrate. The assay used is described in Boulton et al. (1991) Cell Reg. 2: 357.
# (§2) 3T3-L1 adipocytes prepared as described in Example 1 were pretreated for 3 hours with or without 20 mM NaSal or 100 μM PD98059 and then treated for 15 minutes with or without 10 ng/ml mTNF-α and with or without 10 μM BRL. Cell extracts were then prepared and used in ERK 1/2 kinase and JNK-1 kinase assays, as described above.
# (§3) 3T3-L1 cells were pretreated for 3 days with 17 μM of PGJ2 and then for 15 minutes with 10 ng/ml TNF-α. The amount of phosphorylated (thus activated) JNK-1, ERK1/2, and p38 was determined by Western blot using an antibody specifically recognizing phosphorylated forms of the proteins. As a control, the total amount of JNK-1, ERK1/2 and p38 protein was determined by Western blot using an antibody recognizing the phosphorylated and non phosphorylated forms of the protein. The activity of ERK1/2 and JNK kinases was also determined in a kinase assay using MBP and a portion of c-jun, respectively, as substrate.
# perilipin A = test: Western blot of perilipin A protein in 3T3-L1 adipocytes; settings: TNF-α 10 ng/ml, 24 hours
# Protocol: 3T3-L1 adipocytes were treated with TNF-α at 10 ng/ml, TNF-α plus BRL (10 μM), or BRL alone for 24 hours, following which cell lysates were collected and analyzed by Western blotting using antibodies against HSL and perilipin A proteins. Perilipin antibodies were generated by immunization of rabbits with a peptide identical to amino acids 9-23 of the rat perilipin protein (Greenberg et al. (1993) PNAS 90:12035). Antibodies to HSL were prepared by injecting a peptide based upon the rat HSL sequence (GeneBank) (KDLSFKGNSPEPSDSPEMC; SEQ ID NO: 1) into rabbits. Antibodies were subsequently affinity purified and used for Western blotting at a dilution of 1:1500. Western blotting was performed as follows: adipocytes are briefly rinsed with 1 ml of phosphate saline buffer (PBS, pH 7.4). Proteins were extracted by adding 200 μl of lysis buffer containing 50 mM Hepes, pH 7.4, 100 mM Nacl, 2 mM EDTA, 5% SDS, 0.1 mM Na3V) 4 , 50 mM NaF, 1 mM benzamidine, 100 μM AEBSF, adn 10 μg/ml aprotinin. Equivalent amounts of protein were separated by 10% SDS-PAGE, electrophoretically transferred to nitrocellulose membranes, incubated with primary antibody and subsequentely with donkey anti-rabbit IgG conducaged with horseradish peroxidase. Proteins were detected with enhanced chemiluminescence (ECL) system (Amersham). […]
# HSL = test: Western blot of HSL protein in 3T3-L1 adipocytes; settings: TNF-α 10 ng/ml, 24 hours
# Protocol: 3T3-L1 adipocytes were treated with TNF-α at 10 ng/ml, TNF-α plus BRL (10 μM), or BRL alone for 24 hours, following which cell lysates were collected and analyzed by Western blotting using antibodies against HSL and perilipin A proteins. Perilipin antibodies were generated by immunization of rabbits with a peptide identical to amino acids 9-23 of the rat perilipin protein (Greenberg et al. (1993) PNAS 90:12035). Antibodies to HSL were prepared by injecting a peptide based upon the rat HSL sequence (GeneBank) (KDLSFKGNSPEPSDSPEMC; SEQ ID NO: 1) into rabbits. Antibodies were subsequently affinity purified and used for Western blotting at a dilution of 1:1500. Western blotting was performed as follows: adipocytes are briefly rinsed with 1 ml of phosphate saline buffer (PBS, pH 7.4). Proteins were extracted by adding 200 μl of lysis buffer containing 50 mM Hepes, pH 7.4, 100 mM Nacl, 2 mM EDTA, 5% SDS, 0.1 mM Na3V) 4 , 50 mM NaF, 1 mM benzamidine, 100 μM AEBSF, adn 10 μg/ml aprotinin. Equivalent amounts of protein were separated by 10% SDS-PAGE, electrophoretically transferred to nitrocellulose membranes, incubated with primary antibody and subsequentely with donkey anti-rabbit IgG conducaged with horseradish peroxidase. Proteins were detected with enhanced chemiluminescence (ECL) system (Amersham).
# 3T3-L1 adipocytes [3] = test: TNF-α induced FFA release from 3T3-L1 adipocytes (NEFA-C colorimetric kit); settings: 24 hours
# Protocol: as §1
# In this example, cells were treated for 24 hours as described above, and FFA levels in the culture medium were determined using a colorimetric kit (NEFA-C, WAKO Pure Chemicals, Osaka, Japan).
# JNK-1 [4] = test: JNK-1 kinase assay (c-jun substrate) on extracts of treated 3T3-L1 adipocytes; settings: 3 days 17 μM PGJ2, then 15 minutes 10 ng/ml TNF-α
# Protocol: 3T3-L1 adipocytes were pretreated for 3 hours with or without 20 mM NaSal, with or without 100 μM MAP kinase kinase (MEK) inhibitor PD98059 (Biomol; Cat. No. EI-360) and then for 15 minutes with 10 ng/ml mTNF-α. JNK-1 kinase assays were then performed with extracts of each of these cell cultures on an N-terminal portion of c-jun, as described in Derjarde et al. (1994) Cell 76: 1025.
# as §2, §3
# ERK1/2 [5] = test: Western blot of phosphorylated ERK1/2 in 3T3-L1 cells; settings: 3 days 17 μM PGJ2, then 15 minutes 10 ng/ml TNF-α
# Protocol: as §3
# JNK-1 [6] = test: Western blot of phosphorylated JNK-1 in 3T3-L1 cells; settings: 3 days 17 μM PGJ2, then 15 minutes 10 ng/ml TNF-α
# Protocol: as §3
# p38 = test: Western blot of phosphorylated p38 in 3T3-L1 cells; settings: 3 days 17 μM PGJ2, then 15 minutes 10 ng/ml TNF-α
# Protocol: as §3
# 3T3-L1 adipocytes [7] = test: Catecholamine (isoproterenol)-induced glycerol release from 3T3-L1 adipocytes; settings: BRL or PGJ2
compound,measurement,setting,value
TNF-α,increase in glycerol accumulation versus untreated controls,3T3-L1 adipocytes [1]; 2 ng/ml TNF-α,~10 fold
same,increase in glycerol accumulation versus untreated controls,3T3-L1 adipocytes [1]; 10 ng/ml TNF-α,~13 fold
same,increase in phosphorylation of the MBP substrate (ERK1/2 activation),"ERK1/2 [2]; 10 ng/ml TNF-α, 15 minutes",seven
same,expression of perilipin A protein versus untreated controls,perilipin A,markedly decreased
same,HSL protein expression versus untreated controls,HSL,slightly decreased
C[S+]([O-])c1ccc(-c2nc(-c3ccncc3)c(-c3ccc(F)cc3)[nH]2)cc1 (centres unmarked) [SB203580],release of glycerol from the adipocytes,"3T3-L1 adipocytes [1]; SB203580 0-50 μM preincubation, then 10 ng/ml TNF-α 24 hours",increases the release of glycerol
same,concentration up to which glycerol release is proportional to the amount added,"3T3-L1 adipocytes [1]; SB203580, 10 ng/ml TNF-α 24 hours",≤ 20 µM
"CN(CCOc1ccc(CC2SC(=O)NC2=O)cc1)c1ccccn1 (centres unmarked) [BRL, rosiglitazone]",reduction of the increase in glycerol release associated with TNF-α,3T3-L1 adipocytes [1]; 24 hour pretreatment with TNF-α 2 ng/ml,about 65%
same,reduction of the increase in glycerol release associated with TNF-α,3T3-L1 adipocytes [1]; 24 hour pretreatment with TNF-α 10 ng/ml,about 50%
same,inhibition of basal lipolysis,"3T3-L1 adipocytes [1]; 72 hour pretreatment with BRL, no TNF-α",approximately 30%
same,blocked share of the increase in glycerol release due to TNF-α,"3T3-L1 adipocytes [1]; 5 days, TNF-α 2 or 10 ng/ml",about 100%
same,inhibition of TNF-α induced lipolysis,"3T3-L1 adipocytes [1]; BRL, Example 6 (72 hour pretreatment context)",> 90%
same,earliest time point at which the effect of TNF-α on glycerol release began to reverse,3T3-L1 adipocytes [1]; after addition of BRL to TNF-α pretreated cells,6 h
same,effect on FFA release,"3T3-L1 adipocytes [3]; BRL alone, no TNF-α",no effect
same,reduction of TNF-α induced FFA release,"3T3-L1 adipocytes [3]; BRL, 10 ng/ml TNF-α",about 90%
same,"reduction in activation of ERK, factor","ERK1/2 [2]; 72 hour pretreatment with 5 μM BRL, then TNF-α 10 ng/ml 15 minutes in the presence of BRL",about 2.5 factor
"CCCCC/C=C/C=C1/C(=O)C=C[C@@H]1C/C=C\CCCC(=O)O [PGJ2, 15-deoxy-^12,14-PGJ2]",inhibition of TNF-α induced lipolysis,"3T3-L1 adipocytes [1]; 10 μM BRL or 17 μM PGJ2, TNF-α 2 or 10 ng/ml, 24 hours",significantly inhibited; also recorded: inhibit
same,blocked share of the increase in glycerol release due to TNF-α,"3T3-L1 adipocytes [1]; 5 days, TNF-α 2 or 10 ng/ml",about 100%
same,glycerol accumulation versus control (untreated) cells,"3T3-L1 adipocytes [1]; BRL or PGJ2 alone, 5 days",not different from levels measured in control
same,further reduction of lipolysis when added to NaSal,"3T3-L1 adipocytes [1]; added to cells incubated with 20 mM NaSal, TNF-α, 24 hours",did not further reduce lipolysis
same,TNF-α induced increase in JNK-1 kinase activity,JNK-1 [4],to a lesser extent
same,TNF-α induced increase in ERK1/2 kinase activity,"ERK1/2 [2]; 3 days 17 μM PGJ2, then 15 minutes 10 ng/ml TNF-α",significantly inhibits
same,phosphorylation of ERK1/2,ERK1/2 [5],significantly reduces
same,phosphorylation of JNK-1,JNK-1 [6],significantly reduces
same,phosphorylation of p38,p38,significantly reduces
same,block of isoproterenol-induced glycerol release,3T3-L1 adipocytes [7],neither BRL nor PGJ2 was able to block
